{"source": "PubChem BioAssay (NCI)", "assay_in_all_cases": "NCI tumour cell line growth inhibition, 48 h", "key": {"[1]": {"tested_on": "BT-549 breast"}, "[2]": {"tested_on": "DU-145 prostate"}, "[3]": {"tested_on": "HOP-92 NSCLC"}, "[4]": {"tested_on": "HS 578T breast"}, "[5]": {"tested_on": "MCF7 breast"}, "[6]": {"tested_on": "MDA-MB-435"}, "[7]": {"tested_on": "NCI-H522 lung"}, "[8]": {"tested_on": "SR leukemia"}, "[9]": {"tested_on": "A498 renal"}, "[10]": {"tested_on": "NCI-H226 lung"}}, "note": "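In this assay, cells in 96-well plates receive the compound at five concentrations for 48 hours. Endpoints are linearly interpolated between the surrounding concentrations. Abbreviation: GI50, concentration required for 50% inhibition of growth. Definition used: TGI = concentration required for complete inhibition of growth.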"}
{"smiles": "CSC1=Nc2ccccc2N(C)c2c1c(-c1ccccc1)nn2C", "values": [{"measurement": "TGI", "setting": "[1]", "value": "> 100", "unit": "µM"}, {"measurement": "TGI", "setting": "[2]", "value": "> 100", "unit": "µM"}, {"measurement": "TGI", "setting": "[3]", "value": "> 100", "unit": "µM"}, {"measurement": "TGI", "setting": "[4]", "value": "> 100", "unit": "µM"}, {"measurement": "TGI", "setting": "[5]", "value": "> 100", "unit": "µM"}, {"measurement": "TGI", "setting": "[6]", "value": "> 100", "unit": "µM"}, {"measurement": "TGI", "setting": "[7]", "value": "> 100", "unit": "µM"}, {"measurement": "TGI", "setting": "[8]", "value": 95, "unit": "µM"}]}
{"smiles": "O=[Se]([O-])c1ccccc1.O=[Se]([O-])c1ccccc1.[OH3+].[OH3+].[Pt+2]", "values": [{"measurement": "GI50", "setting": "[9]", "value": 16.5, "unit": "µM"}, {"measurement": "TGI", "setting": "[9]", "value": "> 48.8", "unit": "µM"}, {"measurement": "GI50", "setting": "[3]", "value": 14.4, "unit": "µM"}, {"measurement": "TGI", "setting": "[3]", "value": 40.7, "unit": "µM"}, {"measurement": "GI50", "setting": "[5]", "value": 6.42, "unit": "µM"}, {"measurement": "TGI", "setting": "[5]", "value": 37.2, "unit": "µM"}, {"measurement": "GI50", "setting": "[10]", "value": 12.9, "unit": "µM"}, {"measurement": "TGI", "setting": "[10]", "value": 52.5, "unit": "µM"}, {"measurement": "GI50", "setting": "[7]", "value": 2.51, "unit": "µM"}, {"measurement": "TGI", "setting": "[7]", "value": 13.4, "unit": "µM"}]}
{"smiles": "CCC(=O)C(c1ccccc1)c1ccccn1", "note": "(stereo not given)", "values": [{"measurement": "TGI", "setting": "[9]", "value": "> 100", "unit": "µM"}, {"measurement": "TGI", "setting": "[1]", "value": "> 100", "unit": "µM"}, {"measurement": "TGI", "setting": "[2]", "value": "> 100", "unit": "µM"}, {"measurement": "TGI", "setting": "[3]", "value": "> 100", "unit": "µM"}, {"measurement": "TGI", "setting": "[4]", "value": "> 100", "unit": "µM"}, {"measurement": "TGI", "setting": "[5]", "value": "> 100", "unit": "µM"}, {"measurement": "TGI", "setting": "[6]", "value": "> 100", "unit": "µM"}, {"measurement": "TGI", "setting": "[10]", "value": "> 100", "unit": "µM"}, {"measurement": "TGI", "setting": "[7]", "value": "> 100", "unit": "µM"}]}
{"smiles": "O=C(Nc1ccc(I)cc1C(=O)NCCO)c1cccs1", "values": [{"measurement": "TGI", "setting": "[1]", "value": "> 100", "unit": "µM"}, {"measurement": "TGI", "setting": "[5]", "value": "> 100", "unit": "µM"}, {"measurement": "TGI", "setting": "[6]", "value": "> 100", "unit": "µM"}, {"measurement": "TGI", "setting": "[10]", "value": "> 100", "unit": "µM"}, {"measurement": "TGI", "setting": "[7]", "value": "> 100", "unit": "µM"}, {"measurement": "TGI", "setting": "[8]", "value": "> 100", "unit": "µM"}]}
{"smiles": "N#Cc1c(NC(=S)NC(=O)c2ccccc2)nc2c(c1-c1ccccc1)CCC2", "values": [{"measurement": "TGI", "setting": "[1]", "value": "> 100", "unit": "µM"}, {"measurement": "TGI", "setting": "[2]", "value": "> 100", "unit": "µM"}, {"measurement": "TGI", "setting": "[4]", "value": "> 100", "unit": "µM"}, {"measurement": "TGI", "setting": "[6]", "value": "> 100", "unit": "µM"}, {"measurement": "TGI", "setting": "[8]", "value": "> 100", "unit": "µM"}]}
{"smiles": "CC(C)CC(N)C(=O)OCN1C(=O)C2C3C=CC(C2C1=O)C1C2C(=O)N(COC(=O)C(N)CC(C)C)C(=O)C2C31", "note": "(stereo not given)", "values": [{"measurement": "TGI", "setting": "[9]", "value": "> 100", "unit": "µM"}, {"measurement": "TGI", "setting": "[3]", "value": "> 100", "unit": "µM"}, {"measurement": "TGI", "setting": "[10]", "value": "> 100", "unit": "µM"}, {"measurement": "TGI", "setting": "[7]", "value": "> 100", "unit": "µM"}]}
{"smiles": "Cc1[nH]c(/C=C2\\C(=O)Nc3ccc(S(=O)(=O)Cc4c(Cl)cccc4Cl)cc32)c(C)c1C(=O)N1CCC[C@@H]1CN1CCCC1", "values": [{"measurement": "GI50", "setting": "[9]", "value": 18.7, "unit": "µM"}, {"measurement": "TGI", "setting": "[9]", "value": 52.8, "unit": "µM"}, {"measurement": "GI50", "setting": "[1]", "value": 14.1, "unit": "µM"}, {"measurement": "TGI", "setting": "[1]", "value": 83.1, "unit": "µM"}, {"measurement": "GI50", "setting": "[2]", "value": 1.85, "unit": "µM"}, {"measurement": "TGI", "setting": "[2]", "value": 3.39, "unit": "µM"}, {"measurement": "GI50", "setting": "[3]", "value": 2.09, "unit": "µM"}, {"measurement": "TGI", "setting": "[3]", "value": "> 44", "unit": "µM"}, {"measurement": "GI50", "setting": "[4]", "value": 7.72, "unit": "µM"}, {"measurement": "TGI", "setting": "[4]", "value": 43.9, "unit": "µM"}, {"measurement": "GI50", "setting": "[5]", "value": 1.69, "unit": "µM"}, {"measurement": "TGI", "setting": "[5]", "value": 3.64, "unit": "µM"}, {"measurement": "GI50", "setting": "[6]", "value": 0.865, "unit": "µM"}, {"measurement": "TGI", "setting": "[6]", "value": 2.2, "unit": "µM"}, {"measurement": "GI50", "setting": "[10]", "value": 15.1, "unit": "µM"}, {"measurement": "TGI", "setting": "[10]", "value": 54.8, "unit": "µM"}, {"measurement": "GI50", "setting": "[7]", "value": 19.7, "unit": "µM"}, {"measurement": "TGI", "setting": "[7]", "value": 47.7, "unit": "µM"}]}
